This note sets out measurements from patent US20200289598A1, “SOYBEAN SEED EXTRACT, METHOD FOR PRODUCING THE SAME AND USES THEREOF” (CHARSIRE BIOTECHNOLOGY CORP., priority 2016, published 2020).

For data set [1], the system named is MDA-MB-231 (human breast cancer cells) tumor. Nature of the data set: Tumor growth in MDA-MB-231 tumor-bearing nude mice. The format is in vivo. Particulars: CTX one injection a week, test article topical 0.1 g/day. The source says: Cell line and reagent: MDA-MB-231 (purchased from Food Industry Research and Development Institute, Taiwan); […] Animal facility: Approximately 6 to 8 week-old BALB/cAnN.Cg-Foxn1^nu/CrlNarl female mice were obtained from National Laboratory Animal Center, Taiwan. […] Water and food was supplied ad libitum throughout the study period. The mice were housed according to the standard procedure of the laboratory animal committee. Tumor-bearing mice induction: […] The weight, appetite, blood sugar and tumor size growth were observed every week to assess the appearance of the normal physiological state of nude mice to understand the efficacy of the extract composition. Grouping the tumor-bearing mice and treatment: […] The chemotherapy drug (an injection a week) was administrated with the extract composition. […] [table] Clinical assessment of tumor-bearing mice: The physiological state and tumor size of the tumor-bearing mice were assessed including weight, appetite, blood sugar and tumor size.

The format of data set [2] is in vivo, nude mice. How it is done: Animal facility: Approximately 6 to 8 week-old BALB/cAnN.Cg-Foxn1^nu/CrlNarl female mice were obtained from National Laboratory Animal Center, Taiwan. The environment conditions were: temperature: 25±1° C.; humidity: 60±5%; independent air condition; controlled light cycle. Water and food was supplied ad libitum throughout the study period. The mice were housed according to the standard procedure of the laboratory animal committee.
Tumor-bearing mice induction: MDA-MB-231 cells (human breast cancer cells) were cultured until 5×10^6 cells, the cells required in injection of female nude mice were collected with trypsin, and resuspended in PBS solution for tumor induction. The tumor of nude mice was induced by subcutaneous injected with 100 μL of cell solution and released back into the cages to be a normal diet. When the tumor was about 300 mm^3, the mice were subjected to topical administration of different doses of the extract composition and grouping into CTX group and non-CTX group. The weight, appetite, blood sugar and tumor size growth were observed every week to assess the appearance of the normal physiological state of nude mice to understand the efficacy of the extract composition.
Grouping the tumor-bearing mice and treatment: When the tumor was about 300 mm^3, the mice were subjected to grouping as shown in Table 12. The chemotherapy drug (an injection a week) was administrated with the extract composition. The treating group was topically applied to the tumor area, skin around the tumor, and the whole back skin with the dosage of 0.1 g/day. After treatment for 5 weeks, the weight, appetite, blood sugar and tumor size growth of the nude mice were observed.
Clinical assessment of tumor-bearing mice: The physiological state and tumor size of the tumor-bearing mice were assessed including weight, appetite, blood sugar and tumor size. The tumor size was calculated according to: tumor volume (mm^3)=ab^2/2, to assess the tumor growth rate.

The subject of data set [3] is wounds of STZ-induced diabetic rats. Nature of the data set: Wound closure test in STZ-induced diabetic rats. The format is in vivo, rat. To be noted: mean ± SEM. The source says:
Approximately 8 weeks old, with body weight rages of 250 g to 300 g SD male rats were obtained from National Laboratory Animal Center, Taiwan. After 7 days of quarantine, the rats were moved until the body weight over 350 g. The rats were identified by ear notch of the animals. Each cage tag was labeled with the cage number, study number, sex and group name. The rats were housed 2 per cage in polycarbonate cage in the AAALAC accredited animal facility. […] Laboratory Rodent Diet 5001 (PMI® Nutrition International, Inc., MO, USA) were supplied ad libitum throughout the study period. Tap water was supplied ad libitum via bottles attached to the cages. Samples (test articles) were prepared according to Table 4. [table] CGS-21680: Specific adenosine A2A subtype receptor agonist, prepared by adding 1.67 mg of CGS-21680 in 248.4 g of cream base. Diabetic rats: The rats with body weight over 300 g were administrated with one dose of Streptozotocin (STZ, 65 mg/kg) by intravenous injection. The STZ-induced rats with high blood sugar (over 300 mg/dL) for 2 months were selected to conduct the wound closure test. Trauma surgeries for diabetic rats: The diabetic rats with weight lower than 300 g were eliminated and the rest were randomized into 6 groups. The rats were then anesthetized with pentobarbital and hairs on surgical area (dorsal area) were removed. […] Medication and wound closure measurement: The animals were weighed and the area of wounds was measured every other day for evaluation of wound closure. Medications were applied to each wound twice a day and the wounds were covered with cheesecloth. The hoods were worn on the necks of the rats to prevent the wounds from receiving animal scratches. […] When taking pictures, a standard ruler was placed beside the wounds. Before analyzing the wounds with Image pro (Media cybernetics), length was standardized with the standard ruler in the picture to avoid the errors caused by different picturing distances. Data analysis and statistics: Three wound areas on the rats' backs were analyzed by Image pro. The original wound areas were the areas of day zero. The original wound areas minus the wound areas at different time points and then divided by the original wound areas to get the wound closure percentages. The mean of three wound closure percentages of each rat represents the wound closure of each rat. The data was shown as mean±standard error (SEM). The p-values of the testing results were calculated by t-test in statistics software (SYSTAT, Systat software inc). P<0.05 means there is a significant difference, and it is marked with *. P<0.01 means there is a very significant difference, and it is marked with **. P<0.001 means there is an extremely significant difference, and it is marked with ***.

Where “and” joins values, the source holds several entries; their conditions need not be identical. Identical values can stand only once. Like-named read-outs stand apart in the source and are kept apart here.

`O=P1(N(CCCl)CCCl)NCCCO1` (centres unmarked) [CTX, cyclophosphamide]: the tumor size elimination in data set [1] (4/28) is listed as 0.00 mm^3; in data set [1] (5/2), 99.61 mm^3; in data set [1] (5/5), 78.95 mm^3; in data set [1] (5/9) it was −19.52 mm^3; in data set [1] (5/12) it was −45.11 mm^3; in data set [1] (5/16), −157.57 mm^3. Also, the tumor size elimination in data set [1] (5/19) is reported as −176.41 mm^3; in data set [1] (5/23), −264.85 mm^3; in data set [1] (5/26), −293.68 mm^3; in data set [1] (5/30) it was −391.42 mm^3. The average body weight in data set [2] (4/28) stood at 19.64 g; in data set [2] (5/2) it was 20.04 g; in data set [2] (5/5) it was 18.46 g; in data set [2] (5/9), 19.00 g; in data set [2] (5/12), 19.51 g; in data set [2] (5/16), 20.99 g. Also, the average body weight in data set [2] (5/19) amounted to 20.42 g; in data set [2] (5/23), 21.16 g; in data set [2] (5/26), 20.21 g; in data set [2] (5/30), 22.18 g. The average blood sugar came to 113 dL in data set [2] (5/2); 93 dL in data set [2] (5/9); 109 dL in data set [2] (5/16); 122 dL in data set [2] (5/23); 108 dL in data set [2] (5/30). The average food intake in data set [2] (5/5~5/9) is listed as 4.89 g; in data set [2] (5/9~5/12), 5.61 g; in data set [2] (5/12~5/16), 5.38 g; in data set [2] (5/16~5/19), 5.21 g; in data set [2] (5/19~5/23), 4.70 g; in data set [2] (5/23~5/26), 4.76 g. Moreover, the average food intake in data set [2] (5/26~5/30) is given as 5.22 g.

With `CCNC(=O)[C@H]1O[C@@H](n2cnc3c(N)nc(NCCc4ccc(CCC(=O)O)cc4)nc32)[C@H](O)[C@@H]1O` [CGS-21680], the wound closure percentage in data set [3] (Experimental 1, day 4, topical twice a day, CGS-21680 10 μg/wound) was 21.87±5.61% and 21.87 ± 5.61 *** %; in data set [3] (Experimental 1, day 6, topical twice a day, CGS-21680 10 μg/wound) it was 25.45 ± 4.46 *** %; in data set [3] (Experimental 1, day 8, topical twice a day, CGS-21680 10 μg/wound), 45.88 ± 4.28 *** %; in data set [3] (Experimental 1, day 10, topical twice a day, CGS-21680 10 μg/wound) it was 93.80 ± 2.79 *** %; in data set [3] (Experimental 1, day 12, topical twice a day, CGS-21680 10 μg/wound), 91.15 ± 2.72 ** %; in data set [3] (Experimental 1, day 14, topical twice a day, CGS-21680 10 μg/wound) it was 98.74 ± 0.60 ** %. Further, the wound closure percentage in data set [3] (Experimental 2, day 4, topical twice a day, CGS-21680 6.7 μg/wound) is listed as 40.02 ± 5.03 ** %; in data set [3] (Experimental 2, day 6, topical twice a day, CGS-21680 6.7 μg/wound), 63.09 ± 2.58 *** %; in data set [3] (Experimental 2, day 8, topical twice a day, CGS-21680 6.7 μg/wound), 77.21 ± 2.44 *** %; in data set [3] (Experimental 2, day 10, topical twice a day, CGS-21680 6.7 μg/wound), 80.93 ± 2.08 *** %; in data set [3] (Experimental 2, day 12, topical twice a day, CGS-21680 6.7 μg/wound), 96.91 ± 1.08 *** %; in data set [3] (Experimental 2, day 14, topical twice a day, CGS-21680 6.7 μg/wound) it was 99.17 ± 0.54 *** %.
